# Data as given in US9809532B2, “Uses of histone acetyltransferase activators” (THE TRUSTEES OF COLUMBIA UNIVERSITY IN THE CITY OF NEW YORK, priority 2011, dated 2017).
# Where two headings read alike, the source gives them in different places.
# Experiment: Pharmacokinetics and BBB penetration after i.p. and i.v. administration (LC-MS/MS)
# Type: in vivo, BALB/c mice
# Details: 20 mg/kg; for Kp: brain/plasma
# Method: After i.p. and i.v. administration at 20 mg/kg to BALB/c mice, plasma and brain concentrations were determined by LC-MS/MS.
smiles,measurement,setting,value
CCOc1cccc(OCCN(C)C)c1C(=O)Nc1ccc(Cl)c(C(F)(F)F)c1 [Compound 1],Kp,"BALB/c, mouse, ip, IP, read-out: AUC0-t ratio brain/plasma",8.2
same,Kp,"BALB/c, mouse, ip, IP, read-out: AUC0-∞ ratio brain/plasma",8.1
same,Kp,"BALB/c, mouse, ip, IP, read-out: Cmax ratio brain/plasma",5.8
same,Kp,"BALB/c, mouse, iv, IV, read-out: AUC0-t ratio brain/plasma",10.8
same,Kp,"BALB/c, mouse, iv, IV, read-out: AUC0-∞ ratio brain/plasma",11.2
same,Kp,"BALB/c, mouse, iv, IV, read-out: Cmax ratio brain/plasma",13.1
same,Tmax,"BALB/c, mouse, intraperitoneal, brain, read-out: Tmax in the brain (converted)",15 min
same,half-life,"BALB/c, mouse, ip, i.p., brain and plasma, read-out: elimination half-lives in the brain and plasma",~40 min
same,Cmax,"BALB/c, mouse, IP, brain",4880 ng/g
same,MRT,"BALB/c, mouse, IP, brain",61.8 min
same,Tmax,"BALB/c, mouse, IP, brain, read-out: Tmax",15 min
same,half-life,"BALB/c, mouse, IP, brain, read-out: t½ (converted)",37.8 min
same,AUC(0-inf),"BALB/c, mouse, IP, plasma",813 ng·h/mL
same,Cmax,"BALB/c, mouse, IP, plasma",843 ng/mL
same,MRT,"BALB/c, mouse, IP, plasma",51 min
same,AUC0-t,"BALB/c, mouse, IP, plasma, read-out: AUC0-t",806 ng·h/mL
same,Tmax,"BALB/c, mouse, IP, plasma, read-out: Tmax",15 min
same,half-life,"BALB/c, mouse, IP, plasma, read-out: t½ (converted)",36 min
same,Cmax,"BALB/c, mouse, IV, brain",27900 ng/g
same,MRT,"BALB/c, mouse, IV, brain",44.4 min
same,Tmax,"BALB/c, mouse, IV, brain, read-out: Tmax",7.5 min
same,half-life,"BALB/c, mouse, IV, brain, read-out: t½ (converted)",37.8 min
same,AUC(0-inf),"BALB/c, mouse, IV, plasma",2020 ng·h/mL
same,Cmax,"BALB/c, mouse, IV, plasma",2130 ng/mL
same,MRT,"BALB/c, mouse, IV, plasma",50.4 min
same,AUC0-t,"BALB/c, mouse, IV, plasma, read-out: AUC0-t",1970 ng·h/mL
same,Tmax,"BALB/c, mouse, IV, plasma, read-out: Tmax",7.5 min
same,half-life,"BALB/c, mouse, IV, plasma, read-out: t½ (converted)",42 min
same,AUC0-t,"IP, brain",6493 ng·h/g
same,AUC0-∞,"IP, brain",6564 ng·h/g
same,F,"IP, brain",29.2%
same,F,"IP, plasma",41.0%
same,AUC0-t,"IV, brain",22222 ng·h/g
same,AUC0-∞,"IV, brain",22581 ng·h/g
same,amount in the brain compared with plasma,i.p. and i.v.,higher than that in the plasma
